A melting point compilation (Tetko et al.; mined from patent text by program, amines drawn as free bases though some values may be those of a salt)

First: CC(=O)OCC1=C(C(=O)OC(C)(C)C)N2C(=O)C(N)C2SC1 (stereo not given)
Second: CCOC(=O)CNC(=O)C(CCl)NC(=O)OC(C)(C)C (stereo not given)
The melting point of the first is higher: 111 to 112 °C for the first, 71.5 to 72 °C for the second.

Compared with Cn1c(Cc2cccc(C(F)(F)F)c2)nc2c(-c3cccc(C(=O)NCCO)c3)cccc21, CC(=O)Nc1nc(CCc2ccc(NC(=N)N)cc2)c(Cc2cccc(S(C)(=O)=O)c2)s1 is higher in melting point: 147 to 148 °C for the first, 212 to 214 °C for the second.

First: CCOC(=O)CCCCCN1C(=O)c2cccc3cc(N)cc(c23)C1=O
Second: CCCCCC(=O)Nc1ccc2ccn(CCCCCCCC(=O)OC)c2c1
The melting point of the first is higher: 108 to 110 °C for the first, 61 to 63 °C for the second.

First: Cc1cccc2ncc3nnnn3c12
Second: Clc1ccc2ncc(Br)n2n1
The melting point of the first is higher: 166 to 168 °C for the first, 132 to 137 °C for the second.

First: CCn1cc(C(=O)O)c(=O)c2c(F)c(F)c(N3CCOCC3)c(F)c21
Second: CCOC(=O)c1c(Sc2ccccc2)n(C2CC2)c2c(F)c(F)c(F)cc2c1=O
The melting point of the first is higher: 281 to 283 °C for the first, 135 to 137 °C for the second.

First: CCCN(CCC)C1Cc2c[nH]c3ccc(C(=O)C(C)C)c(c23)C1 (stereo not given)
Second: CCCN(CCC)CCCCCOc1ccc2oc(-c3cccc(OC)c3)cc(=O)c2c1
The melting point of the first is higher: 128 °C for the first, 80 to 81 °C for the second.

Compared with Cc1csc2c(-c3ccccc3)c(-c3ccc(Cl)s3)c(CC(=O)O)n12, O=C(O)Cc1cc(-c2ccccc2)sc1NC(=O)c1ccccc1 is lower in melting point: 182 to 183 °C for the first, 121 to 122 °C for the second.

First: CC=C1C(=O)N2C(C(=O)OCc3ccc([N+](=O)[O-])cc3)=C(SCCNC(=O)OCc3ccc([N+](=O)[O-])cc3)CC12 (stereo not given)
Second: O=C1C(CCO)Oc2cc([N+](=O)[O-])ccc2N1Cc1cccc([N+](=O)[O-])c1 (stereo not given)
The melting point of the first is higher: 160 to 161 °C for the first, 157 to 160 °C for the second.

COc1c2c(c(OC(C)=O)c3c1C(=O)c1c(cc(OC(C)=O)c(C)c1OC(C)=O)C3=O)-c1c(cc3cnn(-c4ccccc4)c(=O)c3c1OC(C)=O)CC2 and Cc1c2ccc(-c3nn(C(C)c4oc5ccccc5c(=O)c4-c4cccc(F)c4)c4ncnc(N)c34)cc2nn1C (stereo not given) cannot be ordered by melting point: 273 °C for the first, 269 to 274 °C for the second.

Compared with COc1ccc(CCCCCCCOc2ccccc2)cc1, CCCn1cnc2c1c(=O)n(CCCCCCOc1ccc(Cl)cc1)c(=O)n2C is higher in melting point: 32 to 34 °C for the first, 50 to 51 °C for the second.

First: COc1ccc(N2CCN(c3ccc([N+](=O)[O-])nc3)CC2)cc1
Second: COc1cc(Oc2ccc(Cl)cc2)ccc1[N+](=O)[O-]
The melting point of the first is higher: 186 to 188 °C for the first, 88 to 89 °C for the second.

First: Nc1ncc2cc(-c3c(Br)cccc3Br)c(N)nc2n1
Second: Cc1c(-c2ccccc2)[nH]c(N)c1C(N)=O
The melting point of the first is higher: 284 to 289 °C for the first, 195 to 197 °C for the second.

First: O=[N+]([O-])c1cnccc1NCC(O)CO (stereo not given)
Second: CCOC(=O)c1nccn1Cc1ccccc1[N+](=O)[O-]
The melting point of the first is higher: 131 to 135 °C for the first, 107 to 111 °C for the second.

First: Cc1nnc(-c2ccc(F)cc2)n2nc(OCc3ncnn3C)c(-c3ccsc3)c12
Second: Cc1ccc(-n2c(-c3sc(Nc4ccccc4)nc3C)nc3ccccc3c2=O)cc1
The melting point of the first is lower: 171 to 177 °C for the first, 256 to 257 °C for the second.

First: Cc1nc2ccccc2n(-c2ccc(N(C)C)cc2)c1=O
Second: CC(C)C1NC(=S)N(c2ccc(N(C)C)c3ccccc23)C1=O (stereo not given)
The melting point of the first is higher: 230 to 231 °C for the first, 108 to 110 °C for the second.

CCc1nnc(NS(=O)(=O)c2ccc(N)cc2)s1 and Cc1ccc(-c2ccc(S(C)(=O)=O)cc2)n1-c1ccc(-c2nccs2)cc1 fall in the same range of melting point: 190 to 191 °C for the first, 190 to 191 °C for the second.

First: CCOP(=O)(/C=C/c1cn(-c2ccccc2)nc1OCc1ccc(OCc2nc(-c3ccco3)oc2C)cc1)OCC
Second: O=C(c1ccc(Cl)cc1)N(c1ccccc1)c1ccc(OCc2ccccc2)cc1
The melting point of the first is lower: 131 to 132 °C for the first, 132 to 136 °C for the second.

O=C1CN(c2ccccc2)C(=O)N1CCBr and O=C1C(=C(O)Cc2ccccc2)SC(=S)N1c1ccccc1 cannot be ordered by melting point: 146 to 147 °C for the first, 146 to 148 °C for the second.

First: Nc1ccc(OCCCOc2ccc(N)cc2[N+](=O)[O-])c([N+](=O)[O-])c1
Second: Cc1nc(Nc2ccccc2)sc1C(=O)c1ccc(Cl)c([N+](=O)[O-])c1
The melting point of the first is lower: 152 to 153 °C for the first, 162 to 165 °C for the second.

First: Fc1ccc(-c2nc(SC(F)(F)C(F)F)[nH]c2-c2cccs2)cc1
Second: COc1cc(-c2ncsc2-c2ccc(C(F)(F)F)cc2)cc(OC)c1OC
The melting point of the first is higher: 164 to 168 °C for the first, 110 to 113 °C for the second.

First: CN(C)C(=O)n1cc2c(n1)-c1ccc(Cl)cc1C(c1ccccc1Cl)=NC2
Second: CC(C)(C)C1=NN(c2ccc(C(=O)O)cc2)C(c2ccccc2Cl)C1 (stereo not given)
The melting point of the first is lower: 175 to 176 °C for the first, 229 °C for the second.

First: CCCCOCC(CO)OCn1cnc2c(O)nc(N)nc21 (stereo not given)
Second: O=C(CCn1cnc2c(=O)[nH]cnc21)NCCCN1CCOCC1
The melting point of the first is higher: 208 to 211 °C for the first, 145 to 148 °C for the second.

Compared with CCCCCC/C(=C\c1ccccc1)C1O[C@@H](C(=O)OC)[C@H](C(=O)OC)O1, CC(=O)N[C@@H](C(=O)Oc1ccccc1)C(C)(C)SN=O is higher in melting point: 49 to 50 °C for the first, 120 °C for the second.

First: CC(C)CCCOC1CCC2C3C(=O)C=C4CC(O[Si](C)(C)C(C)(C)C)CCC4(C)C3CCC12C (stereo not given)
Second: CC(=O)OC1CC2C3CCC(C(C)CCCC(C)C)C3(C)CCC2C2(C)CC(F)C(=O)CC12 (stereo not given)
The melting point of the first is lower: 143 to 145 °C for the first, 153 to 156 °C for the second.

Compared with Clc1ccc(C=Cc2ccccc2)cc1, O=Cc1ccccc1Oc1ccc(I)cc1 is lower in melting point: 129 to 130 °C for the first, 84.5 to 86 °C for the second.

Compared with COc1cc(OC)nc(C(=O)NS(=O)(=O)CC(C)C)n1, COCCNC(=O)c1ccc(C(=O)NS(=O)(=O)c2ccccc2)cn1 is higher in melting point: 128 to 130 °C for the first, 190 to 191 °C for the second.

First: CC1(C2Cc3ccccc3O2)CCCCC1 (stereo not given)
Second: COc1ccc(/C=C(\C#N)c2ccccc2Cl)cc1OC1CCCC1
The melting point of the first is lower: 60 to 63 °C for the first, 94 to 95 °C for the second.

Compared with CC(C)N1C(=O)NC(c2ccc3c(c2)OCCO3)c2cc3c(cc21)OCCO3 (stereo not given), CNC(=O)N1N=C(c2ccc([N+](=O)[O-])c(C)c2)c2cc3c(cc2C=C1C)OCO3 is higher in melting point: 92 to 95 °C for the first, 246 to 248 °C for the second.

Compared with Cc1ccc(-n2c(=O)c3c(N4CCNCC4)cc(Cl)cc3n(Cc3ccccc3)c2=O)cc1, COc1ccc(C=NC2CCN(c3cc4c(cc3F)c(=O)c(C(=O)O)cn4-c3ccc(F)cc3)C2)cc1 (stereo not given) is higher in melting point: 120 to 124 °C for the first, 270 to 271 °C for the second.

Compared with CCOn1c(C)nc(N2CCc3ccccc3CC2)c(C#N)c1=O, COc1nc2ccccc2cc1NC(=O)N1CCN(c2ccccc2F)CC1 is higher in melting point: 149 to 152 °C for the first, 156 to 158 °C for the second.

Compared with Cc1cn(-c2ncccn2)cc1C(=O)NC(=N)N, CCC[C@H]1CC[C@H](c2ncc(C(N)=O)cn2)CC1 is higher in melting point: 208 °C for the first, 234 to 235 °C for the second.

Compared with COCCc1nc2c(N)nc3c(c2n1CCCNC(=O)N1CCOCC1)CCCC3, O=S1CCc2n[nH]c(CCCN3CCN(c4ccc(F)cc4)CC3)c2C1 (stereo not given) is lower in melting point: 172 to 173 °C for the first, 140 to 142 °C for the second.

First: COC(=O)C=Cc1ccc(OCC(C)=O)cc1
Second: COC(=O)/C=C/[C@@H](c1ccc2ccccc2c1)c1cccc2c1ccn2C(=O)OC(C)(C)C
The melting point of the first is higher: 117 to 118 °C for the first, 75 to 78 °C for the second.

First: C#CC1(O)C(CO)OC(n2ccc(=O)[nH]c2=O)C1O (stereo not given)
Second: CC1CCCN(C2c3cc4nonc4cc3OC(C)(C)C2O)C1=O (stereo not given)
The melting point of the first is higher: 226 to 228 °C for the first, 146 to 149 °C for the second.

First: CC(=O)NCCNC(=O)CCCCC1CCSS1 (stereo not given)
Second: CCCCCCCCCCCCCCCCCC(=O)N1CC(O)C1
The melting point of the first is higher: 145 to 146 °C for the first, 86 to 87.5 °C for the second.

First: O=[N+]([O-])c1ccc(O)c(CNCCC(F)=C(F)F)c1
Second: CCOC(=O)N1CCC(Nc2ccc(C(F)(F)F)c([N+](=O)[O-])c2)CC1
The melting point of the first is lower: 96 to 98 °C for the first, 127 °C for the second.

First: Cc1c(F)cc(C(=O)O)c(Cl)c1[N+](=O)[O-]
Second: O=C(Nc1c([N+](=O)[O-])cc(F)c(Cl)c1F)C(F)(F)F
The melting point of the first is higher: 186 to 188 °C for the first, 124 to 125 °C for the second.

First: CN(C)C(=O)CCSC(SCCC(=O)O)c1cccc(C=Cc2ccc3ccc(Cl)cc3n2)c1 (stereo not given)
Second: Cn1c(=O)cc(C(=O)O)c2cc(C(=O)c3ccc(Cl)cc3)ccc21
The melting point of the first is lower: 153 to 155 °C for the first, greater than 260 °C for the second.

Compared with Cc1ncccc1CN(CCn1cc(C)c2occc2c1=O)Cc1ccc2c(c1)NC(=O)C(C)(C)C(=O)N2C1CC1, Cc1cc(O)ccc1N1CCc2c1c1cccc(C)c1[nH]c2=O is higher in melting point: 191 to 193 °C for the first, 244 to 246 °C for the second.

First: Cc1ccccc1C(=O)Nc1ccc(C(=O)N2c3ccccc3CCc3ccccc32)cc1
Second: CN(C(=O)CN1C(=O)C(NC(=O)Nc2cccc(C#N)c2)N=C(CN2CCOCC2)c2ccccc21)c1ccccc1 (stereo not given)
The melting point of the first is lower: 112 to 118 °C for the first, 165 to 167 °C for the second.

Compared with CC(C)(C)c1ccc2c(c1)C(C(=O)O)c1ccccc1CO2 (stereo not given), CC(C)(O)C1(c2onc(-c3ccc(O)cc3)c2-c2ccccc2)CC1 is higher in melting point: 197 to 198 °C for the first, 212 to 213 °C for the second.

First: O=C(NCC/C=C\CCCNC(=O)c1ccc(OC(F)(F)F)cc1)c1ccc(OC(F)(F)F)cc1
Second: COC(=O)COc1cc(C(F)(F)F)cc(C(F)(F)F)c1
The melting point of the first is higher: 111 to 113 °C for the first, 65 to 67 °C for the second.

First: COc1cccc(OC(=O)N2CCCC2=O)c1
Second: COc1ccc2c(c1)Nc1cccc(SC)c1S2
The melting point of the first is lower: 45 to 47 °C for the first, 152 to 154 °C for the second.

Compared with CC(C)Cc1cc2cc(OCC(=O)O)c(Cl)c(Cl)c2s1, CCC=C1Cc2c(c(C)c(C)c3oc(C(=O)O)cc23)C1=O is higher in melting point: 164 to 165 °C for the first, 301 °C for the second.

First: O=C(c1cccs1)c1cnn2c(-c3cccc(NC(=S)Nc4ccccc4)c3)ccnc12
Second: O=c1cc(-c2ccncc2)nc2n1CCCN2CCCc1c[nH]c2ccccc12
The melting point of the first is lower: 124 to 126 °C for the first, 230 to 232 °C for the second.

First: Oc1ccc2c(c1)CCCC2n1cc[nH]c1=S (stereo not given)
Second: COc1ccc2c(c1O)CN(C)C(=O)C2c1cc(OC)c(OC)c(OC)c1 (single isomer, unassigned; (+))
The melting point of the first is higher: 213 to 215 °C for the first, 193 to 196 °C for the second.

First: ClCCOc1cc(-c2cccs2)n[nH]1
Second: CCOC(=O)C1=C(COCC#N)NC(C)=C(C(=O)OC)C1c1ccccc1Cl (stereo not given)
The melting point of the first is higher: 134 to 138 °C for the first, 128 to 130 °C for the second.

Compared with CC(C)Oc1ccc2c(c1)Oc1cc(F)ccc1S2(=O)=O, CCc1cccc(C)c1N(CCCC(=O)O)C(=O)CCN(C(C)=O)c1c(C)cccc1C is higher in melting point: 135 to 136 °C for the first, 139 to 141 °C for the second.

Compared with CCOC(=O)NC(=N)NC#N, CCOc1ccnc(F)c1NC(=O)OC(C)(C)C is lower in melting point: 193 to 194 °C for the first, 130 to 131 °C for the second.

First: CS(=O)(=O)Nn1c(=O)[nH]c2cc(C(F)(F)F)c(-n3cnc(C#N)c3)cc2c1=O
Second: Cc1cc(O)c(O)c(O)c1
The melting point of the first is higher: 143 to 145 °C for the first, 114 to 121 °C for the second.
